Results: publication PMC8330735 (Journal of Enzyme Inhibition and Medicinal Chemistry, 2021)

Legend:
[1] = tested on: acetic acid-induced writhing in mice; assay: Acetic acid induced writhing test; assay type: in vivo; conditions: 50 mg/kg p.o.; for Number of writhes: 1 h prior acetic acid i.p., within 30 min
Experimental: The number of writhes, manifested as extension of hind legs, constriction of abdomen, or turning of trunk was recorded within 30 min.

[2] = tested on: NO production in LPS-activated RAW 264.7 macrophages; assay: NO production in LPS-activated RAW 264.7 macrophages (DAF-FM); assay type: cell-based; conditions: Mus musculus, RAW264.7; LPS 1 µg/mL activated RAW 264.7
Experimental: HCA7 colorectal cancer cell line was obtained from Sigma. […] Louis, MO) containing 10% heat-inactivated foetal bovine serum (HI-FBS) (Gibco, USA), 100 μg/mL streptomycin (Invitrogen, USA), and […] penicillin (Invitrogen, USA)[40]. HCA7 and RAW 264.7 cells were cultured in Dulbecco's minimal essential media (DMEM, Invitrogen) containing 10% HI-FBS, sodium pyruvate (1 mM), penicillin ([…]), and streptomycin (100 mg/m)[41]^,[42]. […] Molecular Probes, USA). Briefly, RAW 264.7 cells were cultured in black 96-well plates (200,000 cells/mL, 100 µl/well) for 24 h. […] The fluorescence intensity, which is directly proportional to NO levels, was quantified, as detailed in our previous study. IC50 values were calculated from the dose–response curves.

[3] = tested on: ROS production in LPS-activated RAW 264.7 macrophages; assay: ROS production in LPS-activated RAW 264.7 macrophages (DCFH-DA); assay type: cell-based; conditions: LPS 1 µg/mL activated RAW 264.7
Experimental: HCA7 colorectal cancer cell line was obtained from Sigma. […] Louis, MO) containing 10% heat-inactivated foetal bovine serum (HI-FBS) (Gibco, USA), 100 μg/mL streptomycin (Invitrogen, USA), and […] penicillin (Invitrogen, USA)[40]. HCA7 and RAW 264.7 cells were cultured in Dulbecco's minimal essential media (DMEM, Invitrogen) containing 10% HI-FBS, sodium pyruvate (1 mM), penicillin ([…]), and streptomycin (100 mg/m)[41]^,[42]. […] The cells were cultured, incubated with the different test compounds, and activated with LPS (1 µg/mL) as detailed above. […] IC50 values were calculated from the dose–response curves.

HCT116 cells = assay: MTS cell viability assay HCT116; assay type: cell-based; conditions: Homo sapiens, HCT-116, 48 h, cell line scarcely expressing COX-2
Experimental: (§1) Human colorectal cancer cell lines, HCT116 and HT29, and RAW 264.7 macrophages were obtained from ATCC (Manassas, VA). HCA7 colorectal cancer cell line was obtained from Sigma. HT29 and HCT116 cells were cultured in McCoy's 5 A medium (Sigma Aldrich, St. Louis, MO) containing 10% heat-inactivated foetal bovine serum (HI-FBS) (Gibco, USA), 100 μg/mL streptomycin (Invitrogen, USA), and […] penicillin (Invitrogen, USA)[40]. HCA7 and RAW 264.7 cells were cultured in Dulbecco's minimal essential media (DMEM, Invitrogen) containing 10% HI-FBS, sodium pyruvate (1 mM), penicillin ([…]), and streptomycin (100 mg/m)[41]^,[42].
(§2) Cells were cultured in 96‐well plates for 48 h and then treated with serum-free media containing different concentrations of the tested compounds (12.5, 25, 50, 100 and 150 µM). After 48 h., MTS reagent (Promega) was added as directed by the manufacturer, and then, the absorbance was measured at 495 nm. The absorbance is proportional to the number of viable cells. IC50 was calculated from the dose-response curves as described previously[45] using GraphPad Prism 8 software (GraphPad Software, San Diego, CA).

HT29 cells = assay: MTS cell viability assay HT29; assay type: cell-based; conditions: Homo sapiens, HT-29, 48 h, cell line moderately expressing COX-2
Experimental: as §1, §2

HCA7 cells = assay: MTS cell viability assay HCA7; assay type: cell-based; conditions: Homo sapiens, HCA-7, 48 h, cell line highly expressing COX-2
Experimental: as §1, §2

ovine COX-1 = target: T1, ovine COX-1 (Ovis aries, UniProt P05979); assay: In vitro COX-1 inhibitory assay (colorimetric Cayman kit)
T1 sequence (P05979 25-600): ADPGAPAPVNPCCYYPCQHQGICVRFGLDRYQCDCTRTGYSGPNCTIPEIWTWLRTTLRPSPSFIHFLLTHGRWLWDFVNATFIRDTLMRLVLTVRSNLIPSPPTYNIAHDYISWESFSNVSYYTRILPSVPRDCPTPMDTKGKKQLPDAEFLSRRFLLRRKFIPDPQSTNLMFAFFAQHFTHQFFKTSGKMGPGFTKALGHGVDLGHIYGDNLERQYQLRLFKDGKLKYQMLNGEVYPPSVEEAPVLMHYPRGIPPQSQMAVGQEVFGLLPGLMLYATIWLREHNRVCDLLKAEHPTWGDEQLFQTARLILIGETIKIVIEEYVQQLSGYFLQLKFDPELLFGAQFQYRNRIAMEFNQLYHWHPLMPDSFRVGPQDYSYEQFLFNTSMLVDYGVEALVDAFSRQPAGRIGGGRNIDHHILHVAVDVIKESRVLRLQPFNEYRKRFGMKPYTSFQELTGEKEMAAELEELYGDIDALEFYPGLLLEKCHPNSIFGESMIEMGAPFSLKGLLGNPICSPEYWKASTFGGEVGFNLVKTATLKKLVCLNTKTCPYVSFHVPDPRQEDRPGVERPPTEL
Experimental: (§3) All the newly synthesised compounds were tested for their ability to inhibit COX-1 and COX-2 enzymes using a screening assay method.

human recombinant COX-2 = target: T2, human recombinant COX-2 (Homo sapiens, UniProt P35354); assay: In vitro COX-2 inhibitory assay (colorimetric Cayman kit); conditions: for Selectivity Index (SI): COX-1 IC50/COX-2 IC50
T2 sequence (P35354 18-604): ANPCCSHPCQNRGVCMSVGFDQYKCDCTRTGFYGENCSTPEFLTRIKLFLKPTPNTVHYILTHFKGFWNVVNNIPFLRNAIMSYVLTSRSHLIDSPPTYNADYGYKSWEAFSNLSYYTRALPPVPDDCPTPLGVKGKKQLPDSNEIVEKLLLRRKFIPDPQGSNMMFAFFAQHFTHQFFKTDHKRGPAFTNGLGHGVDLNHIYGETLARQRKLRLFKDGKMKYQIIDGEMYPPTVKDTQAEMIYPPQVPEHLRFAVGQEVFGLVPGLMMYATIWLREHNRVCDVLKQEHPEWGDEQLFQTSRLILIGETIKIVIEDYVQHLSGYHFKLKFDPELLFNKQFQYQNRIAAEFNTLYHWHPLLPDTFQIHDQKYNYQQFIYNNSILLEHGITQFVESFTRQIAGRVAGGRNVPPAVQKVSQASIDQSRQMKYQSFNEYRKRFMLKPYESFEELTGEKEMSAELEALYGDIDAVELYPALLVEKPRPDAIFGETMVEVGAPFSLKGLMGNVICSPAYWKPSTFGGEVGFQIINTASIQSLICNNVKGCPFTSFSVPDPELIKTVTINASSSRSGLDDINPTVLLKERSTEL
Experimental: as §3

| IC50 [2] [µM] | IC50 [3] [µM] | IC50 ([3]; Mus musculus, RAW264.7) [µM] | IC50 (HCT116 cells) [µM] | IC50 (HT29 cells) [µM] | IC50 (ovine COX-1) [µM] | IC50 (human recombinant COX-2) [µM] | Selectivity Index (SI) (human recombinant COX-2) | Selectivity Index (SI) (human recombinant COX-2; listed as 13 b) | SMILES | Reduction in the pain response (writhes number) [1] [%] | Number of writhes [1] | IC50 (HCA7 cells) [µM] |
| --- | --- | --- | --- | --- | --- | --- | --- | --- | --- | --- | --- | --- |
| 23.4 ± 1.29 | 9.23 ± 1.76 | 9.22 | > 150 | 13.4 ± 0.17 | 14.73 ± 0.13 | 0.037 | 398.11 | – | CC(C)Cc1ccc(C(C)C(=O)NN2C(=O)c3ccccc3N(C)C2c2ccc([N+](=O)[O-])cc2)cc1 (stereo not drawn) [7c, 2-(4-Isobutylphenyl)-N-(1-methyl-2-(4-nitrophenyl)-4-oxo-1,4-dihydroquinazolin-3(2H)-yl) propenamide] | 78 | 11.33 writhes | > 150 |
| 9.76 ± 2.14 | – | 24.4 ± 1.43 | > 150 | > 150 | 16.92 ± 0.16 | 0.045 | 373.77 | 373 | NNC(=O)CSc1nc2ccccc2c(=O)n1NC(=O)Cc1ccccc1 [13b, N-(2-((2-hydrazinyl-2-oxoethyl)thio)-4-oxoquinazolin-3(4H)-yl)-2-phenylacetamide] | – | no writhes | > 150 |
